# PubChem BioAssay (NCI)
#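 Dose response: 5 concentrations. Exposure: 48 h. Format: 96-well plates. Endpoint: linear interpolation; highest concentration if not reached. Definition used: TGI = concentration required for complete inhibition of growth.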
# Legend:
# Test in all cases: NCI-60 cell line screen, 48 h
# 786-0 renal = system: 786-0 renal
# A498 renal = system: A498 renal
# A549 NSCLC = system: A549 NSCLC
# ACHN renal = system: ACHN renal
# BT-549 breast = system: BT-549 breast
# CAKI-1 renal = system: CAKI-1 renal
# CCRF-CEM leukemia = system: CCRF-CEM leukemia
# COLO 205 colon = system: COLO 205 colon
# DLD-1 colon = system: DLD-1 colon
# DMS 114 small cell lung = system: DMS 114 small cell lung
# DMS 273 small cell lung = system: DMS 273 small cell lung
# DU-145 prostate = system: DU-145 prostate
# EKVX NSCLC = system: EKVX NSCLC
# HCC-2998 colon = system: HCC-2998 colon
# HCT-116 colon = system: HCT-116 colon
# HCT-15 colon = system: HCT-15 colon
# HL-60(TB) leukemia = system: HL-60(TB) leukemia
# HOP-62 NSCLC = system: HOP-62 NSCLC
# HOP-92 NSCLC = system: HOP-92 NSCLC
# HS 578T breast = system: HS 578T breast
# HT29 colon = system: HT29 colon
# IGROV1 ovarian = system: IGROV1 ovarian
# K-562 leukemia = system: K-562 leukemia
# KM12 colon = system: KM12 colon
# KM20L2 colon = system: KM20L2 colon
# LOX IMVI melanoma = system: LOX IMVI melanoma
# LXFL 529 NSCLC = system: LXFL 529 NSCLC
# M14 melanoma = system: M14 melanoma
# M19-MEL melanoma = system: M19-MEL melanoma
# MALME-3M melanoma = system: MALME-3M melanoma
# MCF7 breast = system: MCF7 breast
# MDA-MB-231 breast = system: MDA-MB-231 breast
# MDA-MB-435 = system: MDA-MB-435
# MDA-N = system: MDA-N
# MOLT-4 leukemia = system: MOLT-4 leukemia
# NCI-H226 lung = system: NCI-H226 lung
# NCI-H23 lung = system: NCI-H23 lung
# NCI-H460 lung = system: NCI-H460 lung
# NCI-H522 lung = system: NCI-H522 lung
# NCI/ADR-RES ovarian = system: NCI/ADR-RES ovarian
# OVCAR-3 ovarian = system: OVCAR-3 ovarian
# OVCAR-4 ovarian = system: OVCAR-4 ovarian
# OVCAR-5 ovarian = system: OVCAR-5 ovarian
# OVCAR-8 ovarian = system: OVCAR-8 ovarian
# PC-3 prostate = system: PC-3 prostate
# RPMI-8226 leukemia = system: RPMI-8226 leukemia
# RXF 393 renal = system: RXF 393 renal
# RXF-631 renal = system: RXF-631 renal
# SF-268 CNS = system: SF-268 CNS
# SF-295 CNS = system: SF-295 CNS
# SF-539 CNS = system: SF-539 CNS
# SK-MEL-2 melanoma = system: SK-MEL-2 melanoma
# SK-MEL-28 melanoma = system: SK-MEL-28 melanoma
# SK-MEL-5 melanoma = system: SK-MEL-5 melanoma
# SK-OV-3 ovarian = system: SK-OV-3 ovarian
# SN12C renal = system: SN12C renal
# SNB-19 CNS = system: SNB-19 CNS
# SNB-75 CNS = system: SNB-75 CNS
# SNB-78 CNS = system: SNB-78 CNS
# SR leukemia = system: SR leukemia
# SW-620 colon = system: SW-620 colon
# T-47D breast = system: T-47D breast
# TK-10 renal = system: TK-10 renal
# U251 CNS = system: U251 CNS
# UACC-257 melanoma = system: UACC-257 melanoma
# UACC-62 melanoma = system: UACC-62 melanoma
# UO-31 renal = system: UO-31 renal
# XF 498 CNS = system: XF 498 CNS
# HOP-18 NSCLC = system: HOP-18 NSCLC
compound,measurement,setting,value
CN(C)CCNc1ccc2nnn3c4ccccc4c(=O)c1c23,TGI,786-0 renal,16.5 µM
same,TGI,A498 renal,8.96 µM
same,TGI,A549 NSCLC,6.56 µM
same,TGI,ACHN renal,7.01 µM
same,TGI,BT-549 breast,32.3 µM
same,TGI,CAKI-1 renal,18.5 µM
same,TGI,CCRF-CEM leukemia,20.6 µM
same,TGI,COLO 205 colon,5.9 µM
same,TGI,DLD-1 colon,22.9 µM
same,TGI,DMS 114 small cell lung,12.7 µM
same,TGI,DMS 273 small cell lung,11.5 µM
same,TGI,DU-145 prostate,9.68 µM
same,TGI,EKVX NSCLC,13.4 µM
same,TGI,HCC-2998 colon,13.1 µM
same,TGI,HCT-116 colon,13.7 µM
same,TGI,HCT-15 colon,13 µM
same,TGI,HL-60(TB) leukemia,15.7 µM
same,TGI,HOP-62 NSCLC,14.2 µM
same,TGI,HOP-92 NSCLC,9.6 µM
same,TGI,HS 578T breast,9.8 µM
same,TGI,HT29 colon,11 µM
same,TGI,IGROV1 ovarian,26.5 µM
same,TGI,K-562 leukemia,18.9 µM
same,TGI,KM12 colon,13.9 µM
same,TGI,KM20L2 colon,11.6 µM
same,TGI,LOX IMVI melanoma,3.72 µM
same,TGI,LXFL 529 NSCLC,17.5 µM
same,TGI,M14 melanoma,9.03 µM
same,TGI,M19-MEL melanoma,9.42 µM
same,TGI,MALME-3M melanoma,10.4 µM
same,TGI,MCF7 breast,25.2 µM
same,TGI,MDA-MB-231 breast,15.3 µM
same,TGI,MDA-MB-435,13.8 µM
same,TGI,MDA-N,12.4 µM
same,TGI,MOLT-4 leukemia,21 µM
same,TGI,NCI-H226 lung,5.28 µM
same,TGI,NCI-H23 lung,11.6 µM
same,TGI,NCI-H460 lung,7.16 µM
same,TGI,NCI-H522 lung,8.31 µM
same,TGI,NCI/ADR-RES ovarian,9.82 µM
same,TGI,OVCAR-3 ovarian,12.8 µM
same,TGI,OVCAR-4 ovarian,9.44 µM
same,TGI,OVCAR-5 ovarian,11.4 µM
same,TGI,OVCAR-8 ovarian,9.91 µM
same,TGI,PC-3 prostate,7.79 µM
same,TGI,RPMI-8226 leukemia,23.9 µM
same,TGI,RXF 393 renal,16.6 µM
same,TGI,RXF-631 renal,10.3 µM
same,TGI,SF-268 CNS,18.8 µM
same,TGI,SF-295 CNS,13.8 µM
same,TGI,SF-539 CNS,15.6 µM
same,TGI,SK-MEL-2 melanoma,13.9 µM
same,TGI,SK-MEL-28 melanoma,15.1 µM
same,TGI,SK-MEL-5 melanoma,5.35 µM
same,TGI,SK-OV-3 ovarian,33.2 µM
same,TGI,SN12C renal,19.9 µM
same,TGI,SNB-19 CNS,34.8 µM
same,TGI,SNB-75 CNS,10.4 µM
same,TGI,SNB-78 CNS,30.5 µM
same,TGI,SR leukemia,> 32.8 µM
same,TGI,SW-620 colon,11 µM
same,TGI,T-47D breast,32.3 µM
same,TGI,TK-10 renal,12.7 µM
same,TGI,U251 CNS,7.63 µM
same,TGI,UACC-257 melanoma,11.4 µM
same,TGI,UACC-62 melanoma,11.6 µM
same,TGI,UO-31 renal,8.6 µM
same,TGI,XF 498 CNS,19.5 µM
Cc1nc2ccccn2c1N=Nc1ccc(C(=O)NN)cc1,TGI,786-0 renal,> 100 µM
same,TGI,A498 renal,> 100 µM
same,TGI,A549 NSCLC,> 100 µM
same,TGI,ACHN renal,> 100 µM
same,TGI,CAKI-1 renal,> 100 µM
same,TGI,CCRF-CEM leukemia,30.6 µM
same,TGI,COLO 205 colon,> 100 µM
same,TGI,DLD-1 colon,> 100 µM
same,TGI,DMS 114 small cell lung,> 100 µM
same,TGI,EKVX NSCLC,> 100 µM
same,TGI,HCC-2998 colon,> 100 µM
same,TGI,HCT-15 colon,> 100 µM
same,TGI,HL-60(TB) leukemia,> 100 µM
same,TGI,HOP-18 NSCLC,> 100 µM
same,TGI,HOP-62 NSCLC,> 100 µM
same,TGI,HOP-92 NSCLC,> 100 µM
same,TGI,HT29 colon,> 100 µM
same,TGI,IGROV1 ovarian,89.7 µM
same,TGI,K-562 leukemia,> 100 µM
same,TGI,KM20L2 colon,> 100 µM
same,TGI,LOX IMVI melanoma,> 100 µM
same,TGI,LXFL 529 NSCLC,> 100 µM
same,TGI,M14 melanoma,> 100 µM
same,TGI,M19-MEL melanoma,> 100 µM
same,TGI,MALME-3M melanoma,> 100 µM
same,TGI,MOLT-4 leukemia,40.8 µM
same,TGI,NCI-H226 lung,> 100 µM
same,TGI,NCI-H23 lung,> 100 µM
same,TGI,OVCAR-3 ovarian,> 100 µM
same,TGI,OVCAR-4 ovarian,> 100 µM
same,TGI,OVCAR-5 ovarian,> 100 µM
same,TGI,OVCAR-8 ovarian,> 100 µM
same,TGI,RPMI-8226 leukemia,> 100 µM
same,TGI,RXF 393 renal,60.1 µM
same,TGI,RXF-631 renal,> 100 µM
same,TGI,SF-268 CNS,> 100 µM
same,TGI,SF-295 CNS,> 100 µM
same,TGI,SF-539 CNS,> 100 µM
same,TGI,SK-MEL-28 melanoma,> 100 µM
same,TGI,SK-MEL-5 melanoma,69.1 µM
same,TGI,SK-OV-3 ovarian,> 100 µM
same,TGI,SN12C renal,> 100 µM
same,TGI,SNB-19 CNS,> 100 µM
same,TGI,SNB-78 CNS,> 100 µM
same,TGI,SW-620 colon,> 100 µM
same,TGI,TK-10 renal,> 100 µM
same,TGI,U251 CNS,> 100 µM
same,TGI,UACC-257 melanoma,> 100 µM
same,TGI,UACC-62 melanoma,> 100 µM
same,TGI,UO-31 renal,> 100 µM
same,TGI,XF 498 CNS,> 100 µM
